Test results: patent publication US20180236080A1, “FAST-ACTING INSULIN COMPOSITION COMPRISING A CITRIC ACID SALT” (ADOCIA, priority 2017, published 2018)

How the values were obtained:
[1] = target: hexameric R6 form of insulin lispro (Homo sapiens, UniProt P01308, K53P/P52K); details: insulin lispro 100 IU/ml, FIG. 5 and FIG. 6
Excerpt: The loss of the signal at 240 nm is related to a destabilization of the hexameric R6 form and the passage from the R6 form to the T6 form.

[2] = target: hexameric form R6 of insulin aspart (Homo sapiens, UniProt P01308, P52D); details: insulin aspart 100 U/ml, FIG. 9 and FIG. 10
Excerpt: The loss of the signal at 240 nm is related to a destabilization of the hexameric form R6 and the passage from R6 form to T6 form.
FIG. 9 describes the CD signal at 240 nm (deg·cm^2·dmol^−1) on the ordinate and on the abscissa:
Circular dichroism has been performed at 240 nm on the following compositions (FIG. 10):

[3] = cited from earlier work
[4] = at 4° C.; cited from earlier work

hexameric form R6 of insulin aspart, sequence (P01308 25-54 P52D limits assumed): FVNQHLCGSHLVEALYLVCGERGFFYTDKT
hexameric form R6 of insulin aspart, sequence (P01308 90-110 limits assumed): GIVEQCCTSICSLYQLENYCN
hexameric R6 form of insulin lispro, sequence (P01308 25-54 P52K/K53P limits assumed): as the sequence (P01308 25-54 P52D limits assumed) above, with D28K, K29P counted along it

In the case of `O=C(O)CN(CCN(CC(=O)O)CC(=O)O)CC(=O)O` [EDTA], the “Impact on the CD signal at 240 nm / R6 form of insulin lispro” value [1] is reported as “completely deconstructs the R6 form” and the “Impact on the CD signal at 240 nm / R6 form of insulin aspart” value [2] is reported as “completely deconstructs the R6 form”.
For human insulin, the “Delay of action compared to a fast-acting insulin analog” value ([3]; dissociation of hexamers into dimers and monomers, Brange J. et al. 1999) is listed as roughly 20 minutes, the “Time after which a hypoglycemic effect occurs” value ([3]; injected subcutaneously) is listed as 60 min and the “Stability in the form of hexamers” value [4] is listed as roughly 2 years.
